In patent publication US20140296146A1, “Thermostable Inhibitors of Activation of the Blood Clotting System Through Contact with Foreign Surfaces” (Synapse B.V., priority 2011, published 2014):
pKi: −log10 of the molar value. Like-named read-outs stand apart in the source and are kept apart here. Where a SMILES comes first, the peptide text is derived from it. Bridges are numbered along the chain shown (N, C = ends).

How the values were obtained:
[1] = biological target: T1, h-FXIIa (Homo sapiens, UniProt P00748); assay: Stability of CTI, PTI and TICA at RT and at 95° C., read as inhibition of h-FXIIa; type: physicochemical
T1 construct: purchased Enzyme Research Laboratories FXIIa 1212A
T1 sequence (P00748 373-615 limits assumed): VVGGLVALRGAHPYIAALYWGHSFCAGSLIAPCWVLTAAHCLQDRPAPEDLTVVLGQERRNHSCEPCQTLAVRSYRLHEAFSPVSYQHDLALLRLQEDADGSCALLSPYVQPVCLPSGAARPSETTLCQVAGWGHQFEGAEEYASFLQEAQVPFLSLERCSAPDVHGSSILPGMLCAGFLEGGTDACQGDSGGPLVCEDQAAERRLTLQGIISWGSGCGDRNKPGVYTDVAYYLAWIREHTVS
T1 sequence (P00748 20-372 partner limits assumed): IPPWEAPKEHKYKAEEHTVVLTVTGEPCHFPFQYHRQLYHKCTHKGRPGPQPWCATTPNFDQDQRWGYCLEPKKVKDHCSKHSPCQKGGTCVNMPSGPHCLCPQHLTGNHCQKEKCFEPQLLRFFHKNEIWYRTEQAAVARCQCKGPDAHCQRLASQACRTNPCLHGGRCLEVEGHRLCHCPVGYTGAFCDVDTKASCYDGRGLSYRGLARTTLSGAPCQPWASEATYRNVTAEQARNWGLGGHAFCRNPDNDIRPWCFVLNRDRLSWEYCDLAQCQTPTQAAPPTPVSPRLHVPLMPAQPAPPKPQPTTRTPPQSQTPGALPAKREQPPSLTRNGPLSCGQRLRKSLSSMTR
Description: Materials • S2302 From Chromogenic, lot # N0398718 SEQ0860, exp. date 2012-07. Water added on 7 Oct. […] On 3 Aug. […] Product code FXIIa 1212A, lot #FXIIa 2520PL. Bottle with 0.5 mg was reconstituted with 370 μl pure water. […] Buffer 4 mM NaAc, 150 mM NaCl (pH 5.3). Preparation was divided into 20 μl amounts and frozen at −80° C. • Hepes735 140 mM NaCl, 20 mM Hepes, 0.02% NaN3 (pH 7.35). • BSA5 Hepes735+5 mg/ml BSA. • CTI Prepared on 17 Dec. 2004, 0.141 mg/ml, i.e. 0.141/12028=11.7*10^−6 M (11.7 μM). One portion was thawed and divided into 3 parts. […]
(§1) Stock FXIIa was diluted 700× in BSA5. The inhibitor was diluted in BSA5 as indicated. Wells contained 70 μl diluted FXIIa (5 nM final), 70 μl inhibitor and 20 μl S2302 (475 or 462.5 μM final). The reaction was started after 5 min heating on the heating plate with S2302. Filters 405 nm and 490 nm reference. Found ΔmA/min was multiplied by 2.14 to get the figure for a 1 cm path.
The residual activity (V) was fitted against the inhibitor concentration with equation:
(§2) V=(E+(sqrt(Ê2+2*E*(Ki−I)+Î2+2*I*Ki+Kî2)−E−I−Ki)/2)*kcat*S/(Km+S)
(§3) in which E=[FXIIa], Ki is the dissociation constant, I=[Inhibitor], kcat and Km are Michaelis constants and S=[S2302].
To calculate the concentration of I the equation I=x·(x−E−Ki)/(x−E) was used. In this equation is I the calculated inhibitor concentration, x=the residual activity of FXIIa (free FXIIa), E the total FXIIa concentration (=9.33 nM), and Ki the dissociation or inhibitor constant.

[2] = biological target: T1, h-FXIIa; assay: Effect of inhibitors on hydrolysis of S2302 by h-FXIIa; type: biochemical
Description: Materials • S2302 From Chromogenic, lot # N0398718 SEQ0860, exp. date 2012-07. Water added on 7 Oct. […] On 3 Aug. […] Product code FXIIa 1212A, lot #FXIIa 2520PL. Bottle with 0.5 mg was reconstituted with 370 μl pure water. […] Buffer 4 mM NaAc, 150 mM NaCl (pH 5.3). Preparation was divided into 20 μl amounts and frozen at −80° C. • Hepes735 140 mM NaCl, 20 mM Hepes, 0.02% NaN3 (pH 7.35). • BSA5 Hepes735+5 mg/ml BSA. • CTI Prepared on 17 Dec. 2004, 0.141 mg/ml, i.e. 0.141/12028=11.7*10^−6 M (11.7 μM). One portion was thawed and divided into 3 parts. Part 1 was frozen at −80° C.; part 2 was kept at RT; and part 3 was incubated 30 min at 95° C. and then kept at RT.
as §1, with “mΔA/min” for “ΔmA/min”
The residual activity (V) was fitted against the PTI concentration with equation:
as §2, §3

[3] = Ki, Table 2, inhibitory activity of different polypeptides
[4] = ki F.XIIa (ng/ml), Before heating

Row | Compound | Res. Act. (%) ([1]; inhibitor 30 min 95° C.) | Res. Act. (%) ([1]; inhibitor at RT during 72 hrs) | Res. Act. (%) ([1]; inhibitor kept at −80° C.) | pKi [2, 3] | pKi [2, 4] | pKi [2]
1 | CC[C@H](C)[C@@H]1NC(=O)[C@@H]2CSSC[C@H](NC(=O)[C@@H](NC(=O)[C@H](CCCNC(=N)N)NC(=O)[C@H](CCC(=O)O)NC(=O)[C@H](CCC(=O)O)NC(=O)[C@@H](N)Cc3c[nH]cn3)C(C)C)C(=O)N3CCC[C@H]3C(=O)N[C@@H](CCCCN)C(=O)N[C@@H]([C@@H](C)CC)C(=O)N[C@@H](CC(C)C)C(=O)N[C@@H](CCSC)C(=O)N[C@@H](CCC(=O)O)C(=O)N[C@H]3CSSC[C@H](NC1=O)C(=O)N[C@@H](CC(C)C)C(=O)N[C@@H](CCC(=O)O)C(=O)N[C@@H](Cc1c[nH]cn1)C(=O)NCC(=O)N[C@@H](Cc1ccc(O)cc1)C(=O)N[C@H](C(=O)NCC(=O)O)CSSC[C@H](NC(=O)[C@H](CC(=O)O)NC(=O)[C@H](CO)NC(=O)[C@H](CC(=O)O)NC(=O)[C@H](CCCCN)NC(=O)[C@H](CCCCN)NC3=O)C(=O)N[C@@H](CC(C)C)C(=O)N[C@@H](C)C(=O)N[C@@H](CCC(=O)O)C(=O)N2 [TICA5] (H-HEERVCPKILMECKKDSDCLAECICLEHGYCG-OH; disulfide 6-23, 13-25, 19-31 (inferred); N-terminus and C-terminus assumed) | 105 | 96 | 100 | 3.77 | 3.82 | –
2 | CC[C@H](C)[C@@H]1NC(=O)[C@H](CCCNC(=N)N)NC(=O)[C@@H]2CCCN2C(=O)[C@@H](NC(=O)[C@@H](NC(=O)[C@H](CCCNC(=N)N)NC(=O)[C@H](CCC(=O)O)NC(=O)[C@H](CCC(=O)O)NC(=O)[C@@H](N)Cc2c[nH]cn2)C(C)C)CSSC[C@@H]2NC(=O)[C@H](CCC(=O)O)NC(=O)[C@H](C)NC(=O)[C@H](CC(C)C)NC(=O)[C@@H]3CSSC[C@@H](C(=O)NCC(=O)O)NC(=O)[C@H](Cc4ccc(O)cc4)NC(=O)CNC(=O)[C@H](Cc4c[nH]cn4)NC(=O)[C@H](CCC(=O)O)NC(=O)[C@H](CC(C)C)NC(=O)[C@H](CSSC[C@H](NC(=O)[C@H](CCCCN)NC(=O)[C@H](CCSC)NC(=O)[C@H](CC(C)C)NC1=O)C(=O)N[C@@H](CCCCN)C(=O)N[C@@H](CCCCN)C(=O)N[C@@H](CC(=O)O)C(=O)N[C@@H](CO)C(=O)N[C@@H](CC(=O)O)C(=O)N3)NC(=O)[C@H](C(C)C)NC2=O [TICA3] (H-HEERVCPRILMKCKKDSDCLAECVCLEHGYCG-OH; disulfide 6-23, 13-25, 19-31 (inferred); N-terminus and C-terminus assumed) | 103 | 101 | 100 | 5.51 | 5.56 | –
3 | CC[C@H](C)[C@@H]1NC(=O)[C@H](CCCNC(=N)N)NC(=O)[C@@H]2CCCN2C(=O)[C@@H](NC(=O)[C@@H](NC(=O)[C@H](CCCNC(=N)N)NC(=O)[C@H](C)NC(=O)[C@H](C)NC(=O)[C@H](C)N)C(C)C)CSSC[C@@H]2NC(=O)[C@H](CCC(=O)O)NC(=O)[C@H](C)NC(=O)[C@H](CC(C)C)NC(=O)[C@@H]3CSSC[C@@H](C(=O)NCC(=O)O)NC(=O)[C@H](Cc4ccc(O)cc4)NC(=O)CNC(=O)[C@H](Cc4c[nH]cn4)NC(=O)[C@H](CCC(=O)O)NC(=O)[C@H](CC(C)C)NC(=O)[C@H](CSSC[C@H](NC(=O)[C@H](CCCCN)NC(=O)[C@H](CCSC)NC(=O)[C@H](CC(C)C)NC1=O)C(=O)N[C@@H](CCCCN)C(=O)N[C@@H](CCCCN)C(=O)N[C@@H](CC(=O)O)C(=O)N[C@@H](CO)C(=O)N[C@@H](CC(=O)O)C(=O)N3)NC(=O)[C@H](C(C)C)NC2=O [AAA-TICA1] (H-AAARVCPRILMKCKKDSDCLAECVCLEHGYCG-OH; disulfide 6-23, 13-25, 19-31) | – | – | – | – | – | 6.98
4 | CC[C@H](C)[C@@H]1NC(=O)[C@H](CCCNC(=N)N)NC(=O)[C@@H]2CCCN2C(=O)[C@@H](NC(=O)[C@@H](NC(=O)[C@@H](N)CCCNC(=N)N)C(C)C)CSSC[C@@H]2NC(=O)[C@H](CCC(=O)O)NC(=O)[C@H](C)NC(=O)[C@H](CC(C)C)NC(=O)[C@@H]3CSSC[C@@H](C(=O)NCC(=O)N[C@@H](C)C(=O)N[C@@H](C)C(=O)N[C@@H](C)C(=O)O)NC(=O)[C@H](Cc4ccc(O)cc4)NC(=O)CNC(=O)[C@H](Cc4c[nH]cn4)NC(=O)[C@H](CCC(=O)O)NC(=O)[C@H](CC(C)C)NC(=O)[C@H](CSSC[C@H](NC(=O)[C@H](CCCCN)NC(=O)[C@H](CCSC)NC(=O)[C@H](CC(C)C)NC1=O)C(=O)N[C@@H](CCCCN)C(=O)N[C@@H](CCCCN)C(=O)N[C@@H](CC(=O)O)C(=O)N[C@@H](CO)C(=O)N[C@@H](CC(=O)O)C(=O)N3)NC(=O)[C@H](C(C)C)NC2=O [TICA1-AAA] (H-RVCPRILMKCKKDSDCLAECVCLEHGYCGAAA-OH; disulfide 3-20, 10-22, 16-28) | – | – | – | – | – | 6.42
